Each structure is given as a SMILES string. In brackets after ≈: the same amount, converted by molar mass.

Format in all cases: functional
The subject of test [1] is Staphylococcus aureus. The test is described as follows: Antibacterial activity against Staphylococcus aureus RN4220 at 100 uM by transcription-translation assay.
Test [2] relates to Staphylococcus aureus. The experiment in a line: Antibacterial activity against Staphylococcus aureus UC9218 in presence of 10% human serum.
The test system of test [3] is Staphylococcus aureus. The test is described as follows: Antibacterial activity against Staphylococcus aureus UC9218.

As usually defined, the inhibition is the share of the control response that was lost under treatment. The low end stands for little suppression, the high end for strong suppression. As usually defined, the MIC is the least concentration at which growth counts as inhibited. In turn, `O=C(c1cccc(S(=O)(=O)N2CCc3cc(Cl)ccc32)c1)n1[nH]c(=O)c2cc(Br)ccc21` had an inhibition at 100 µM in the test with Staphylococcus aureus [1] of 20%. Further, the results for the MIC in the test with Staphylococcus aureus [2] and with Staphylococcus aureus [3] were 128 µg/mL and 4 µg/mL (≈ 7.51 µM), respectively.
`Cn1c(C(=O)n2[nH]c(=O)c3cc(C#N)ccc32)cc2ccccc21` displayed an inhibition at 100 µM in the test on Staphylococcus aureus [1] of 49%. Also, the results for the MIC with Staphylococcus aureus [2] and in the test with Staphylococcus aureus [3] were greater than 128 µg/mL and 64 µg/mL (≈ 202 µM), respectively.
Taken in the same sequence, the figures for `O=C(c1cccc(S(=O)(=O)N2CCc3cc(Cl)ccc32)c1)n1[nH]c(=O)c2cc(OC(F)(F)F)ccc21` were 78%, greater than 128 µg/mL and 4 µg/mL (≈ 7.44 µM).
As for `Cn1c(C(=O)n2[nH]c(=O)c3cc(C#N)ccc32)cc2cccc(S(=O)(=O)c3ccccc3)c21`, the figures for the MIC with Staphylococcus aureus [2] and with Staphylococcus aureus [3] were 64 µg/mL and 4 µg/mL (≈ 8.76 µM), respectively.
`CN(c1ccc(Cl)cc1)S(=O)(=O)c1cccc(C(=O)n2[nH]c(=O)c3cc(Br)ccc32)c1`: in the test on Staphylococcus aureus [1], the inhibition at 100 µM was determined as 55%. The MIC in the test with Staphylococcus aureus [2] and in the test with Staphylococcus aureus [3] was greater than 128 µg/mL each time.
With `O=C(c1ccc(S(=O)(=O)N2CCc3cc(Cl)ccc32)cc1)n1[nH]c(=O)c2ccc(Cl)cc21`, in the test on Staphylococcus aureus [1], 100 µM produced 86% inhibition. In addition, the results for the MIC with Staphylococcus aureus [2] and against Staphylococcus aureus [3] were greater than 128 µg/mL and 8 µg/mL (≈ 16.4 µM), respectively.
In turn, `O=C(c1cncc(SCc2ccccc2)n1)n1[nH]c(=O)c2cc(Br)ccc21` registered an inhibition at 100 µM with Staphylococcus aureus [1] of 28%. Also, the results for the MIC with Staphylococcus aureus [2] and in the test with Staphylococcus aureus [3] were greater than 128 µg/mL and 32 µg/mL (≈ 72.5 µM), respectively.
The corresponding values for `O=C(c1cnc(SCc2ccccc2)cn1)n1[nH]c(=O)c2cc(Br)ccc21` are 5%, greater than 128 µg/mL and greater than 128 µg/mL.
The corresponding values for `O=C(c1cccc(S(=O)(=O)N2CCc3cc(Cl)ccc32)c1)n1[nH]c(=O)c2cc(C(F)(F)F)ccc21` are 62%, greater than 128 µg/mL and 8 µg/mL (≈ 15.3 µM).
The corresponding values for `O=C(c1cccc(S(=O)(=O)N2CCc3cc(Cl)ccc32)c1)n1[nH]c(=O)c2ccc(Br)cc21` are 67%, greater than 128 µg/mL and 8 µg/mL (≈ 15 µM).
Compound `O=C(c1cccc(S(=O)(=O)N2CCc3cc(Cl)ccc32)c1)n1[nH]c(=O)c2cc(Cl)ccc21` gave an inhibition at 100 µM in the test with Staphylococcus aureus [1] of 80%. Besides, the results for the MIC in the test on Staphylococcus aureus [2] and against Staphylococcus aureus [3] were 128 µg/mL and 4 µg/mL (≈ 8.19 µM), respectively.
Take `N#Cc1ccc2c(c1)c(=O)[nH]n2C(=O)c1cncc(SCc2ccccc2)n1`: the inhibition at 100 µM in the test with Staphylococcus aureus [1] was 7%. The MIC with Staphylococcus aureus [2] and against Staphylococcus aureus [3] was greater than 128 µg/mL throughout.
For `N#Cc1ccc2c(c1)c(=O)[nH]n2C(=O)c1ccc(S(=O)(=O)N2CCc3cc(Cl)ccc32)cc1`, the inhibition at 100 µM in the test on Staphylococcus aureus [1] came to 5%. In addition, the MIC with Staphylococcus aureus [2] was greater than 128 µg/mL; in the test with Staphylococcus aureus [3], 64 µg/mL (≈ 134 µM).
For `Cn1c(C(=O)n2[nH]c(=O)c3cc(Br)ccc32)cc2cccc(S(=O)(=O)c3ccccc3)c21`, the MIC in the test on Staphylococcus aureus [2] came to 128 µg/mL; with Staphylococcus aureus [3] it was 2 µg/mL (≈ 3.92 µM).
The compound `Cc1ccc2c(c1)c(=O)[nH]n2C(=O)c1cccc(S(=O)(=O)N2CCc3cc(Cl)ccc32)c1` registered an inhibition at 100 µM in the test with Staphylococcus aureus [1] of 49%. In addition, the MIC in the test with Staphylococcus aureus [2] was greater than 128 µg/mL; in the test on Staphylococcus aureus [3] it was 16 µg/mL (≈ 34.2 µM).
The corresponding values for `N#Cc1ccc2c(c1)c(=O)[nH]n2C(=O)c1cccc(S(=O)(=O)N2CCc3ccccc32)c1` are 13%, 8 µg/mL and 0.5 µg/mL (≈ 1.12 µM).
In turn, `O=C(c1cccc(S(=O)(=O)N2CCOCC2)c1)n1[nH]c(=O)c2cc(Cl)ccc21` registered an inhibition at 100 µM in the test with Staphylococcus aureus [1] of 5%. For the same compound, the minimum inhibitory concentration (MIC) with Staphylococcus aureus [2] and in the test on Staphylococcus aureus [3] was greater than 128 µg/mL in each case.
With `N#Cc1ccc2c(c1)c(=O)[nH]n2C(=O)c1cccc(S(=O)(=O)N2CCOCC2)c1`, in the test on Staphylococcus aureus [1], the inhibition at 100 µM was 10%. The MIC was 64 µg/mL in the test with Staphylococcus aureus [2] and 64 µg/mL (≈ 155 µM) in the test on Staphylococcus aureus [3].
As to `N#Cc1ccc2c(c1)c(=O)[nH]n2C(=O)c1cc2cccc(S(=O)(=O)c3ccccc3)c2[nH]1`, the MIC with Staphylococcus aureus [2] was greater than 128 µg/mL; in the test with Staphylococcus aureus [3], 16 µg/mL (≈ 36.2 µM).
In the test with Staphylococcus aureus [1], `O=C(c1cccc(S(=O)(=O)N2CCc3cc(Cl)ccc32)c1)n1[nH]c(=O)c2ccc(Cl)cc21` displayed an inhibition at 100 µM of 78%. The MIC in the test with Staphylococcus aureus [2] is greater than 128 µg/mL; in the test with Staphylococcus aureus [3] it was 8 µg/mL (≈ 16.4 µM).
Regarding `CC(C)Sc1ccc(C(=O)n2[nH]c(=O)c3cc(Br)ccc32)cn1`, in the test with Staphylococcus aureus [1], the inhibition at 100 µM stood at 49%. The MIC in the test on Staphylococcus aureus [2] and with Staphylococcus aureus [3] was greater than 128 µg/mL throughout.
Take `O=C(c1ccc(S(=O)(=O)N2CCc3cc(Cl)ccc32)cc1)n1[nH]c(=O)c2cc(Br)ccc21`: in the test with Staphylococcus aureus [1], 100 µM produced 56% inhibition. For the same compound, the MIC was greater than 128 µg/mL in the test on Staphylococcus aureus [2] and 8 µg/mL (≈ 15 µM) with Staphylococcus aureus [3].
The corresponding values for `N#Cc1ccc2c(c1)c(=O)[nH]n2C(=O)c1cc2ccccc2[nH]1` are 99%, greater than 128 µg/mL and 64 µg/mL (≈ 212 µM).
Taken in the same sequence, the figures for `O=C(c1cccc(S(=O)(=O)N2CCOCC2)c1)n1[nH]c(=O)c2cc(Br)ccc21` were 3%, greater than 128 µg/mL and greater than 128 µg/mL.
With `O=C(c1cc2cccc(S(=O)(=O)c3ccccc3)c2[nH]1)n1[nH]c(=O)c2cc(Br)ccc21`, the MIC in the test on Staphylococcus aureus [2] was found to be 128 µg/mL; in the test with Staphylococcus aureus [3], 16 µg/mL (≈ 32.2 µM).
Compound `N#Cc1ccc2c(c1)c(=O)[nH]n2C(=O)c1cnc(SCc2ccccc2)cn1` showed an inhibition at 100 µM with Staphylococcus aureus [1] of 22%. For the same compound, the MIC with Staphylococcus aureus [2] and with Staphylococcus aureus [3] was greater than 128 µg/mL in each case.
`O=C(c1cc(-c2ccccc2)on1)n1[nH]c(=O)c2cc(Br)ccc21` had an inhibition at 100 µM in the test on Staphylococcus aureus [1] of 42%. The MIC with Staphylococcus aureus [2] is greater than 128 µg/mL; in the test on Staphylococcus aureus [3], 16 µg/mL (≈ 41.6 µM).
The corresponding values for `O=C(c1cccc(S(=O)(=O)N2CCc3ccccc32)c1)n1[nH]c(=O)c2cc(Br)ccc21` are 52%, 128 µg/mL and 8 µg/mL (≈ 16.1 µM).
The corresponding values for `O=C(c1ccc(S(=O)(=O)N2CCc3cc(Cl)ccc32)cc1)n1[nH]c(=O)c2cc(Cl)ccc21` are 61%, greater than 128 µg/mL and 16 µg/mL (≈ 32.8 µM).
`CN(c1ccc(Cl)cc1)S(=O)(=O)c1cc(Br)cc(C(=O)n2[nH]c(=O)c3cc(Br)ccc32)c1`: testing at 100 µM with Staphylococcus aureus [1] gave an inhibition of 29%. In addition, the MIC in the test on Staphylococcus aureus [2] and against Staphylococcus aureus [3] was greater than 128 µg/mL throughout.

For the origin of these results see ChEMBL document CHEMBL1152154, “Bacterial translation inhibitors, 1-acylindazol-3-ols as anthranilic acid mimics” (2008).
